Experimental data published in US20220117964A1, “COMBINATION OF FAK INHIBITOR AND BTK INHIBITOR FOR TREATING A DISEASE” (ASCENTAGE PHARMA (SUZHU) CO., LTD., priority 2019, published 2022).
Read-outs that look alike come from different tables or passages of the source.

What was measured:
YES-2 cells [1] = assay: Cell migration (Transwell) assay; format: cell-based; settings: 0.5 μM Compound 5, 0.25 μM Ibrutinib or both
Method: The culture medium was sucked into a chamber of Transwell (PC membrane, pore size 8.0 μm, Corning, N.Y., USA), and then the chamber was placed in a 24-well plate containing 750 μl of 50% FBS medium. After incubation for 24 to 30 hours, the chamber was taken out, the medium in the chamber was sucked out, and the redundant cells in the chamber were wiped off with a cotton swab. The chamber was placed in paraformaldehyde to perform fixation for 15 minutes, and staining was performed with 0.5% crystal violet at room temperature for 15 minutes. Cell migration activity was described as a relative number of the cells that exited the chamber.
(§1) (1) The experimental method was as described in the items (1), (2), (5) of Example 2. […] The changes in signaling pathway of related proteins were determined by Western blotting assay.

YES-2 = assay: CCK-8 cell viability assay; format: cell-based; settings: read-out: IC50, proliferation inhibition
Method: (§2) Cell viability was measured using Cell Counting Kit-8 (Dojindo, Japan) according to the manufacturer's instructions. In short, cells were inoculated in a 96-well plate at 3000 to 4000 cells/well in the presence of a single drug or a combination of drugs for 72 hours. After 72 hours, CCK-8 reagent (10 μL/well) was added and incubated at 37° C. for 1-2 hours, and absorbance readings at 450 nm were obtained. The IC50 values were calculated by using GraphPad Prism version 6.0.0 (GraphPad Software, San Diego, Calif. USA) for Windows.
(§3) (1) The experimental method was described in item (1) and item (5) of Example 2. The expression difference of FAK gene between normal esophageal tissue and esophageal cancer tissue was determined by analyzing the TCGA database source information in the GEPIA database (http://gepia.cancer-pku.cn/), and the correlation between the FAK gene and the EGFR gene in esophageal cancer was determined by analyzing the TCGA database source information using the Pearson test. The basic protein expression levels for the following proteins in 6 esophageal cancer cell lines (TE-10, TE-1, YES-2, KYSE-520, KYSE-510, KYSE-150) were detected by Western blot method: EGFR, phosphorylated-EGFR (p-EGFR, Tyr1068), FAK, phosphorylated-FAK (p-FAK, Tyr397), BTK, C-Myc, phosphorylated-C-Myc (p-C-Myc), in which f3-tubulin was used as internal reference protein.
(§4) (1) The experimental methods were as described in the items (1), (3) and (4) of Example 2.

KYSE-520 = assay: CCK-8 cell viability assay; format: cell-based; settings: Homo sapiens; KYSE-520 cells, CCK-8, 72 hours; read-out: IC50, proliferation inhibition
Method: as §2, §3, §4

KYSE-150 = assay: CCK-8 cell viability assay; format: cell-based; settings: Homo sapiens; KYSE-150 cells, CCK-8, 72 hours; read-out: IC50, proliferation inhibition
Method: as §2, §3, §4

[2] = test system: phosphorylated MEK (p-MEK, Ser217/221); assay: Western blot, KYSE-150 and KYSE-520 cells; format: cell-based; settings: KYSE-150 (1 μM Compound 5, 1 μM Ibrutinib) and KYSE-520 (1 μM Compound 5, 0.5 μM Ibrutinib), 24 hours
Method: (§5) The cells were lysed on ice with 1× cell lysis buffer containing 1% protease inhibitor (PMSF) and 1% phosphokinase inhibitor for 30 minutes, centrifuged at 12000 rpm and 4° C. for 15 minutes, and the supernatant protein lysate was collected. The protein concentration was measured by BCA protein concentration detection kit. The cell protein lysates (20 to 50 μg) were separated using 8-12% SDS-PAGE electrophoresis. The separated proteins were transferred to a PVDF membrane. The PVDF membrane was blocked with 5% BSA buffer at room temperature for 30 minutes to 1 hour, and then incubated overnight on a 4° C. shaker with 1× TBST containing primary antibody. The redundant primary antibody was eluted, and the membrane was washed 3 times with 1× TBST, 5 to 10 minutes for each time. The protein band membrane was incubated with horseradish peroxidase-labeled secondary antibody dilution for 1 hour at room temperature, and the membrane was washed 3 times with 1× TBST, 5 to 10 minutes for each time. The signal generation and detection were performed using an ECL chemiluminescence ultrasensitive colorimetric kit and a chemiluminescence imaging system. The primary antibodies used in this experiment included: EGFR, (CST, Cat.4267S); phosphorylated EGFR (p-EGFR (Tyr1068)), (CST, Cat.3777T); FAK, (CST, Cat.3285S); phosphorylated FAK (p-FAK (Tyr397)), (CST, Cat.8556T); AKT, (CST, Cat.4685S); phosphorylated p-AKT (Ser473), (CST, Cat.9271S); ERK, (CST,Cat.4695S); phosphorylated ERK (p-ERK (Thr202/Tyr204)), (CST, Cat.4370T); phosphorylated MEK (p-MEK (Ser217/221)), (CST, Cat.9121S);BTK, (Immunoway, Cat. YM1294); C-Myc, (CST, Cat. 5605); phosphorylated C-Myc, (CST, Cat. 13748); Cyclin B1 (CST, Cat. 12231S), Cylin D1 (CST, Cat.2978S), GAPDH (ABGENT, Cat.AM1020B). The secondary antibodies used in this experiment included goat-anti-rabbit secondary antibody (Senta, Cat. Sc-2004) and goat-anti-mouse secondary antibody (Senta, Cat. Sc-2005).
as §1

Cyclin B1 = assay: Western blot, KYSE-150 and KYSE-520 cells; format: cell-based; settings: KYSE-150 (1 μM Compound 5, 1 μM Ibrutinib) and KYSE-520 (1 μM Compound 5, 0.5 μM Ibrutinib), 24 hours
Method: as §5, §1

Cyclin D1 = assay: Western blot, KYSE-150 and KYSE-520 cells; format: cell-based; settings: KYSE-150 (1 μM Compound 5, 1 μM Ibrutinib) and KYSE-520 (1 μM Compound 5, 0.5 μM Ibrutinib), 24 hours
Method: as §5, §1

[3] = test system: phosphorylated EGFR (p-EGFR, Tyr1068); assay: Western blot, KYSE-150 and KYSE-520 cells; format: cell-based; settings: KYSE-150 (1 μM Compound 5, 1 μM Ibrutinib) and KYSE-520 (1 μM Compound 5, 0.5 μM Ibrutinib), 24 hours
Method: as §5, §1

YES-2 cells [4] = assay: Colony formation assay; format: cell-based; settings: 0.5 μM Compound 5, 0.25 μM Ibrutinib or both, 12 days
Method: (§6) Growth inhibition was detected by colony formation assay. ESCC cells were inoculated in 6-well plates at about 500 cells/well, and treated with different inhibitors or DMSO, and then replaced with fresh medium containing with different inhibitors or DMSO every 3 to 4 days. The cells were stained with crystal violet (V5265, Sigma, St Louis, Mo., USA) on day 12. After washing twice with PBS, the cells were fixed with 1% paraformaldehyde and incubated for 15 minutes at room temperature. The cells were then washed twice with PBS and stained with 0.5% crystal violet for 15 minutes at room temperature.
as §1

KYSE-150 cells = assay: Colony formation assay; format: cell-based, human; settings: 1 μM Compound 5, 1 μM Ibrutinib or both, 12 days
Method: as §6, §1

[5] = test system: phosphorylated-FAK (p-FAK, Tyr397); assay: Western blot, KYSE-150 and KYSE-520 cells; format: cell-based; settings: KYSE-150 (1 μM Compound 5, 1 μM Ibrutinib) and KYSE-520 (1 μM Compound 5, 0.5 μM Ibrutinib), 24 hours
Method: as §5, §1

SMILES: C=CC(=O)N1CCC[C@@H](n2nc(-c3ccc(Oc4ccccc4)cc3)c3c(N)ncnc32)C1 [Ibrutinib]
- cell migration (YES-2 cells [1]): cell migration in certain extent
- IC50 (YES-2; 72 h): 177 nM
- IC50 (KYSE-520): 245 nM
- IC50 (KYSE-150): 1220 nM
- protein expression level of phosphorylated MEK (p-MEK, Ser217/221) [2]: significantly decrease
- protein expression level of Cyclin B1 (Cyclin B1): significantly decrease
- protein expression level of Cyclin D1 (Cyclin D1): significantly decrease
- protein expression level of phosphorylated EGFR (p-EGFR, Tyr1068) [3]: significantly decrease

SMILES: Cc1cc(Nc2ncc(Cl)c(Nc3ccccc3S(=O)(=O)C(C)C)n2)c(OC(C)C)cc1C1=CCN(C2CCOCC2)CC1 [Compound 5, 5-chloro-N^2-(2-isopropoxy-5-methyl-4-(1-(tetrahydro-2H-pyran-4-yl)-1,2,3,6-tetrahydropyridin-4-yl)phenyl)-N^4-(2-(isopropylsulfonyl)phenyl)pyrimidine-2,4-diamine]
- inhibitory effect on cell clone formation (YES-2 cells [4]): stronger inhibitory effects
- inhibitory effect on cell clone formation (KYSE-150 cells): stronger inhibitory effects
- cell migration (YES-2 cells [1]): cell migration in certain extent
- IC50 (YES-2; YES-2 cells, CCK-8, 72 hours): 956 nM
- IC50 (KYSE-520): 825 nM
- IC50 (KYSE-150): 2310 nM
- protein expression level of phosphorylated-FAK (p-FAK, Tyr397) [5]: significantly decrease
